The NIST ThermoML archive (doi:10.1016/j.fluid.2005.08.011)

Conditions: Gas, isochoric method

CCF [fluoroethane]
Conditions | mass density [kg/m3]
300.16 K, 642.2 kPa | 13.92
305.16 K, 656.6 kPa | 13.917
310.14 K, 670.4 kPa | 13.913
312.16 K, 1205.6 kPa | 27.61
314.16 K, 1218.3 kPa | 27.607
315.15 K, 684.8 kPa | 13.91
316.15 K, 1231.8 kPa | 27.605
318.15 K, 1244.1 kPa | 27.602
320.14 K, 698.5 kPa | 13.906
322.16 K, 1268.7 kPa | 27.596
324.15 K, 1614.6 kPa | 37.54
325.14 K, 712.3 kPa | 13.903
326.14 K, 1634.4 kPa | 37.536
326.16 K, 1293.4 kPa | 27.591
328.15 K, 1652.5 kPa | 37.533
330.15 K, 1670.2 kPa | 37.529
330.16 K, 726.1 kPa | 13.899
330.16 K, 1317.6 kPa | 27.585
332.15 K, 2022.6 kPa | 48.84
334.16 K, 1341.9 kPa | 27.58
334.16 K, 1704.9 kPa | 37.521
334.16 K, 2047.7 kPa | 48.835
335.15 K, 739.5 kPa | 13.896
336.16 K, 2072.5 kPa | 48.83
338.12 K, 2287.8 kPa | 56.23
338.16 K, 1739 kPa | 37.514
338.17 K, 1365.6 kPa | 27.574
338.2 K, 2096.6 kPa | 48.825
339.16 K, 2108.2 kPa | 48.823
340.12 K, 2318.8 kPa | 56.224
340.15 K, 752.5 kPa | 13.892
340.15 K, 2419 kPa | 60.32
340.16 K, 2120.6 kPa | 48.821
342.12 K, 2347.8 kPa | 56.219
342.16 K, 1388.9 kPa | 27.569
342.16 K, 2144.2 kPa | 48.816
342.16 K, 2450.7 kPa | 60.314
342.17 K, 1773.5 kPa | 37.506
344.12 K, 2376.7 kPa | 56.213
344.16 K, 2167.5 kPa | 48.811
344.16 K, 2482.2 kPa | 60.308
346.12 K, 2404.5 kPa | 56.208
346.14 K, 2707.5 kPa | 68.66
346.15 K, 768.9 kPa | 13.888
346.15 K, 1412.4 kPa | 27.563
346.15 K, 2513.1 kPa | 60.302
346.16 K, 1806.7 kPa | 37.499
346.16 K, 2190.7 kPa | 48.806
347.15 K, 2725.9 kPa | 68.657
348.13 K, 2432.7 kPa | 56.202
348.15 K, 2743.8 kPa | 68.653
348.16 K, 2214 kPa | 48.801
348.16 K, 2543 kPa | 60.296
350.15 K, 1435.8 kPa | 27.558
350.15 K, 2460.5 kPa | 56.196
350.15 K, 2779.8 kPa | 68.646
350.16 K, 1840.5 kPa | 37.491
350.16 K, 2237.2 kPa | 48.796
350.16 K, 2573.4 kPa | 60.29
350.16 K, 2978.2 kPa | 78.21
351.16 K, 2999.9 kPa | 78.206
352.15 K, 2488.2 kPa | 56.191
352.15 K, 2815 kPa | 68.639
352.16 K, 2260.1 kPa | 48.791
352.16 K, 2603.3 kPa | 60.284
352.17 K, 3021.2 kPa | 78.202
353.14 K, 3180.2 kPa | 85.66
353.16 K, 3042.3 kPa | 78.198
354.15 K, 3204.5 kPa | 85.656
354.16 K, 790.7 kPa | 13.883
354.16 K, 1458.8 kPa | 27.552
354.16 K, 1873.7 kPa | 37.484
354.16 K, 2283 kPa | 48.787
354.16 K, 2515.3 kPa | 56.185
354.16 K, 2633.4 kPa | 60.278
354.16 K, 2850.7 kPa | 68.633
354.17 K, 3062.9 kPa | 78.194
355.15 K, 3227.8 kPa | 85.651
356.14 K, 2542.3 kPa | 56.18
356.15 K, 2663.1 kPa | 60.272
